The record followed here is patent US8039493B2, “Biaryl sulfonamide derivatives” (Hoffmann-La Roche Inc., priority 2008, dated 2011).

The target in test [1] is T1, human LXR alpha (Homo sapiens, UniProt Q13133).
T1 construct: human LXR alpha (aa 164 to 447); made in house; host or cells: E. coli BL21 (pLysS)
T1 sequence (Q13133 164-447): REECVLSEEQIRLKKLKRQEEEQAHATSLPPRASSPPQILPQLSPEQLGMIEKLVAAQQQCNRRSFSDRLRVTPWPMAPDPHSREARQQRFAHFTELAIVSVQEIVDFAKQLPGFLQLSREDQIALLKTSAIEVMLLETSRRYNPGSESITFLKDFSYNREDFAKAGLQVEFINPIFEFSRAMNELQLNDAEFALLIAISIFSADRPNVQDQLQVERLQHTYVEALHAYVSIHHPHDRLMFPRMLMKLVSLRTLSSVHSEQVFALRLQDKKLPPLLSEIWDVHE
Kind of test: Radioligand binding assay (scintillation proximity), LXRα-LBD. Particulars: LXRα-LBD on SPA beads, read-out: LXRalpha Binding IC50. As to the method:
(§1) The following tests were carried out in order to determine the activity of the compounds of the present invention. […] Mammalian expression vectors were constructed to express full-length human LXR alpha and LXR beta. […] To accomplish this, the portions of the sequences encoding the LBDs were amplified from the full-length clones by PCR and then subcloned into the plasmid vectors.
(§2) Induction, expression, and purification of LBD proteins were performed in E. coli strain BL21 (pLysS) cells by standard methods (Ref: Current Protocols in Molecular Biology, Wiley Press, edited by Ausubel et al).
(§3) Radioligand Binding Assay
(§4) LXR alpha and LXR beta receptor binding were assayed in buffer consisting of 50 mM HEPES, pH 7.4, 10 mM NaCl, 5 mM MgCl2. For each 96-well reaction, 500 ng of LXRα-LBD or 700 ng of LXR beta-LBD proteins were bound to 80 μg or 40 μg SPA beads respectively, in a final volume of 50 μl by shaking. The resulting slurry was incubated for 1 h at RT and centrifuged for 2 min at 1300×g. The supernatant containing unbound protein was removed, and the semi-dry pellet containing the receptor-coated beads was re-suspended in 50 μl of buffer. Radioligand (eg. 100,000 dpm of (N-(2,2,2-trifluoroethyl)-N-[4-(2,2,2-trifluoro-1-hydroxy-1-trifluoromethylethyl)-phenyl]-benzenesulfonamide)) was added, and the reaction incubated at RT for 1 h in the presence of test compounds, and then scintillation proximity counting was performed. All binding assays were performed in 96-well plates and the amount of bound ligand was measured on a Packard TopCount using OptiPlates (Packard). Dose response curves were measured within a range of concentration from 10^−10 M to 10^−4 M.
For orientation: Scintillation proximity formats need no separation of bound from free tracer.

Test [2] addresses T2, human LXR beta (Homo sapiens, UniProt P55055).
T2 construct: human LXR beta (aa 155 to 460); made in house; host or cells: E. coli BL21 (pLysS)
T2 sequence (P55055 155-460): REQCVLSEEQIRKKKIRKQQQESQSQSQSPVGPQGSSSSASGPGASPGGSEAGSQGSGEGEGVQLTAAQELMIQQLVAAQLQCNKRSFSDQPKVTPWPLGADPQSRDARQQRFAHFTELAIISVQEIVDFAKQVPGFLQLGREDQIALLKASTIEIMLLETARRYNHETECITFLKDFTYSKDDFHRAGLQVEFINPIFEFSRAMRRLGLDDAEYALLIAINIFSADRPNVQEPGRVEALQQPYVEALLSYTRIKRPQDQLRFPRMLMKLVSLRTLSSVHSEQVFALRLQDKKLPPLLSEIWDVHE
The test can be described thus: Radioligand binding assay (scintillation proximity), LXR beta-LBD. To be noted: LXR beta-LBD on SPA beads, read-out: LXRbeta Binding IC50. As to the method:
as §1, §2, §3, §4

Broadly, the IC50 is the concentration that inhibits the measured activity by half. `CC(C)CN(Cc1ccc(-c2cccc(S(C)(=O)=O)c2)o1)S(=O)(=O)c1ccccc1Cl` [Example 13, 2-Chloro-N-isobutyl-N-[5-(3-methanesulfonyl-phenyl)-furan-2-ylmethyl]-benzenesulfonamide]: the half-maximal inhibitory concentration (IC50) in test [1] is 3490 nM; in test [2] it was 40.5 nM.

`CS(=O)(=O)c1cccc(-c2ncc(CN(Cc3ccccc3)S(=O)(=O)c3ccccc3Cl)s2)c1` [Example 10, N-Benzyl-2-chloro-N-[2-(3-methanesulfonyl-phenyl)-thiazol-5-ylmethyl]-benzenesulfonamide]: the half-maximal inhibitory concentration (IC50) is 2700 nM in test [1] and 56.5 nM in test [2].

`CN(Cc1ccc(-c2cccc(S(C)(=O)=O)c2)s1)S(=O)(=O)c1ccccc1C(F)(F)F` [Example 27, N-[5-(3-Methanesulfonyl-phenyl)-thiophen-2-ylmethyl]-N-methyl-2-trifluoromethyl-benzenesulfonamide]: the half-inhibitory concentration (IC50) in test [1] is 29200 nM; in test [2], 2610 nM.

For the compound `CCS(=O)(=O)N(Cc1ccc(-c2cccc(S(C)(=O)=O)c2)s1)CC(C)C` [Example 16, Ethanesulfonic acid isobutyl-[5-(3-methanesulfonyl-phenyl)-thiophen-2-ylmethyl]-amide], the IC50 came to 25000 nM in test [1] and 2860 nM in test [2].

Regarding `CC(C)CN(Cc1cnc(-c2cccc(S(C)(=O)=O)c2)s1)S(=O)(=O)c1ccccc1Cl` [Example 11, 2-Chloro-N-isobutyl-N-[2-(3-methanesulfonyl-phenyl)-thiazol-5-ylmethyl]-benzenesulfonamide], the values for the half-inhibitory concentration (IC50) in test [1] and in test [2] were 8780 nM and 170 nM, respectively.

On to `CC(C)CN(Cc1cccc(-c2cccc(S(C)(=O)=O)c2)n1)S(=O)(=O)c1ccccc1Cl` [Example 47, 2-Chloro-N-isobutyl-N-[6-(3-methanesulfonyl-phenyl)-pyridin-2-ylmethyl]-benzenesulfonamide], for which the IC50 worked out at 1480 nM in test [1] and 49.5 nM in test [2].

For `CCCN(Cc1cccc(-c2cccc(S(C)(=O)=O)c2)c1)S(=O)(=O)C(C)C` [Example 49, Propane-2-sulfonic acid (3′-methanesulfonyl-biphenyl-3-ylmethyl)-propyl-amide], the IC50 was found to be 20100 nM in test [1] and 1560 nM in test [2].

Turning to `COCCN(Cc1ccc(-c2cccc(S(C)(=O)=O)c2)s1)S(=O)(=O)c1ccccc1C(F)(F)F` [Example 35, N-[5-(3-Methanesulfonyl-phenyl)-thiophen-2-ylmethyl]-N-(2-methoxy-ethyl)-2-trifluoromethyl-benzenesulfonamide], the values for the concentration for half-maximal inhibition (IC50) in test [1] and in test [2] were 975 nM and 116 nM, respectively.

As to `CC(C)CN(Cc1ccc(-c2cccc(S(C)(=O)=O)c2)cc1F)S(=O)(=O)c1ccccc1Cl` [Example 42, 2-Chloro-N-(3-fluoro-3′-methanesulfonyl-biphenyl-4-ylmethyl)-N-isobutyl-benzenesulfonamide], the IC50 in test [1] was determined as 8.2 nM; in test [2], 6.8 nM.

In the case of `CC(C)CN(Cc1cc(-c2cccc(S(N)(=O)=O)c2)cs1)S(=O)(=O)c1ccccc1Cl` [Example 54, 2-Chloro-N-isobutyl-N-[4-(3-aminosulfonyl-phenyl)-thiophen-2-ylmethyl]-benzenesulfonamide], the IC50 came to 84.5 nM in test [1] and 7.4 nM in test [2].

As to `CC(C)CN(Cc1ccnc(-c2cccc(S(C)(=O)=O)c2)c1)S(=O)(=O)c1ccccc1Cl` [Example 48, 2-Chloro-N-isobutyl-N-[2-(3-methanesulfonyl-phenyl)-pyridin-4-ylmethyl]-benzenesulfonamide], the concentration for half-maximal inhibition (IC50) was 7860 nM in test [1] and 150 nM in test [2].

For `CCCCS(=O)(=O)N(Cc1ccc(-c2cccc(S(C)(=O)=O)c2)s1)CC(C)C` [Example 25, Butane-1-sulfonic acid isobutyl-[5-(3-methanesulfonyl-phenyl)-thiophen-2-ylmethyl]-amide], the half-maximal inhibitory concentration (IC50) in test [1] came to 2750 nM; in test [2] it was 80 nM.

Turning to `CC(C)CN(Cc1ccc(-c2cccc(S(C)(=O)=O)c2)s1)S(C)(=O)=O` [Example 15, N-Isobutyl-N-[5-(3-methanesulfonyl-phenyl)-thiophen-2-ylmethyl]-methanesulfonamide], the IC50 is 48700 nM in test [1] and 7060 nM in test [2].

In the case of `CS(=O)(=O)c1cccc(-c2ccc(CN(CC3CC3)S(=O)(=O)c3ccccc3C(F)(F)F)s2)c1` [Example 32, N-Cyclopropylmethyl-N-[5-(3-methanesulfonyl-phenyl)-thiophen-2-ylmethyl]-2-trifluoromethyl-benzenesulfonamide], the concentration for half-maximal inhibition (IC50) in test [1] was 845 nM; in test [2] it was 106 nM.

In the case of `CS(=O)(=O)c1cccc(-c2ccc(CN(Cc3ccccc3)S(=O)(=O)c3cccc(Cl)c3)s2)c1` [Example 7, N-Benzyl-3-chloro-N-[5-(3-methanesulfonyl-phenyl)-thiophen-2-ylmethyl]-benzenesulfonamide], the IC50 in test [1] was determined as 4280 nM; in test [2], 1510 nM.

`CS(=O)(=O)c1cccc(-c2ccc(CN(Cc3ccccc3)S(=O)(=O)c3ccccc3C(F)(F)F)s2)c1` [Example 1, N-Benzyl-N-[5-(3-methanesulfonyl-phenyl)-thiophen-2-ylmethyl]-2-trifluoromethyl-benzenesulfonamide]: the figures for the IC50 in test [1] and in test [2] were 205 nM and 165 nM, respectively.

Consider `CC(C)CN(Cc1cccc(-c2cccc(S(C)(=O)=O)c2)c1)S(=O)(=O)c1ccccc1Cl` [Example 43, 2-Chloro-N-isobutyl-N-(3′-methanesulfonyl-biphenyl-3-ylmethyl)-benzenesulfonamide], for which the results for the IC50 in test [1] and in test [2] were 26 nM and 19 nM, respectively.

Turning to `CC(C)CN(Cc1ccc(-c2cccc(S(C)(=O)=O)c2)s1)S(=O)(=O)CC1CCCCC1` [Example 58, C-Cyclohexyl-N-isobutyl-N-[5-(3-methanesulfonyl-phenyl)-thiophen-2-ylmethyl]-methanesulfonamide], the concentration for half-maximal inhibition (IC50) worked out at 31700 nM in test [1] and 1340 nM in test [2].

Consider `CS(=O)(=O)c1cccc(-c2ccc(CN(C(=O)c3ccccc3)S(=O)(=O)c3ccccc3Cl)s2)c1` [Example 6, N-Benzoyl-2-chloro-N-[5-(3-methanesulfonyl-phenyl)-thiophen-2-ylmethyl]-benzenesulfonamide], for which the IC50 in test [1] turned out to be 1570 nM; in test [2], 46 nM.

Consider `CC(C)CN(Cc1ccc(-c2cccc(S(C)(=O)=O)c2)s1)S(=O)(=O)c1ccccc1F` [Example 17, 2-Fluoro-N-isobutyl-N-[5-(3-methanesulfonyl-phenyl)-thiophen-2-ylmethyl]-benzenesulfonamide], for which the figures for the IC50 in test [1] and in test [2] were 2210 nM and 28 nM, respectively.

For the compound `Cc1ccc(F)cc1S(=O)(=O)N(Cc1ccc(-c2cccc(S(C)(=O)=O)c2)s1)CC(C)C` [Example 24, 5-Fluoro-N-isobutyl-N-[5-(3-methanesulfonyl-phenyl)-thiophen-2-ylmethyl]-2-methyl-benzenesulfonamide], the IC50 in test [1] was 165 nM; in test [2], 28.5 nM.

For the compound `CC(C)CN(Cc1cncc(-c2cccc(S(C)(=O)=O)c2)c1)S(=O)(=O)c1ccccc1Cl` [Example 44, 2-Chloro-N-isobutyl-N-[5-(3-methanesulfonyl-phenyl)-pyridin-3-ylmethyl]-benzenesulfonamide], the half-maximal inhibitory concentration (IC50) in test [1] turned out to be 3440 nM; in test [2], 30 nM.

Turning to `CS(=O)(=O)Nc1cccc(-c2ccc(CN(Cc3ccccc3)S(=O)(=O)c3ccccc3C(F)(F)F)s2)c1` [Example 2, N-Benzyl-N-[5-(3-methanesulfonylamino-phenyl)-thiophen-2-ylmethyl]-2-trifluoromethyl-benzenesulfonamide], the IC50 in test [1] amounted to 170 nM; in test [2], 126 nM.

As to `CS(=O)(=O)c1cccc(-c2ccc(CN(CCN3CCCC3)S(=O)(=O)c3ccccc3C(F)(F)F)s2)c1` [Example 40, N-[5-(3-Methanesulfonyl-phenyl)-thiophen-2-ylmethyl]-N-(2-pyrrolidin-1-yl-ethyl)-2-trifluoromethyl-benzenesulfonamide], the results for the IC50 in test [1] and in test [2] were 10700 nM and 285 nM, respectively.
